# Biological target: T1, human metabotropic Glutamate 4 receptor (Homo sapiens, UniProt Q14833)
# T1 construct: expressed in transfected cells; host or cells: HEK293
# Assay: In vitro testing of mGluR4 potency (Assay A), cAMP HTRF in HEK293 cells
# Format: cell-based
# Conditions: not given
# Method: A. In Vitro Testing of mGluR4 Potency
# The in vitro activity of the compounds according to the invention may be investigated as follows:
# The HEK293 cell overexpressing the human metabotropic Glutamate 4 receptor were thawed at 37° C. and immediately diluted with cell culture medium. After centrifugation, the cell pellet is re-suspended in medium and then distributed from a stirred spinner flask into the wells of the assay plate. The plates are incubated for one hour at room temperature before they are incubated for 24 hours at 37° C./5% C02. After washing the cells in the plate three times with 80 uL HBSS/HEPES buffer (10 uL buffer remained in the wells after washing), 5 uL per well of compounds diluted in HBSS/HEPES buffer containing 0.2% BSA (final concentration: 0.1%) and 1 mM IBMX (final concentration: 0.5 mM) are added to the wells of the assay plate. Thereafter 5 uL per well of L-Glutamic acid (final concentration: 10 uM), forskolin (final concentration: 1 uM) and 1 mM IBMX (final concentration: 0.5 mM) dissolved in HBSS/HEPES buffer containing 0.2% BSA (final concentration: 0.1%) are added to the assay plate (final DMSO concentration: 1%). Several wells of the assay plate are used either for the positive and the negative controls or for the cAMP standard curve. The assay plate is incubated for 30 minutes at room temperature. Then 5 ul per well of Anti-cAMP-Antibody-d2 solution and 5 ul per well of cAMP-Europium Cryptate dilution are added to all wells of the plate and the plate is incubated another 60 minutes light protected at room temperature. The emission at 615 nm and 665 nm (Excitation wavelength: 320 nm) are measured on the EnVision™ reader (PerkinElmer). The ratio between the emission at 665 nm and 615 is calculated by the reader. The whole assay is performed in the dark or under green light.
# The cAMP standard is prepared by diluting the cAMP stock solution with HBSS/Hepes buffer: 5 μl/well of the cAMP dilutions (in HBSS/Hepes buffer containing 1 mM IBMX and 0.2% BSA-final concentration: 0.5 mM IBMX and 0.1% BSA) are added to 10 ul/well HBSS/Hepes buffer plus 5 ul/well 4% DMSO in HBSS/Hepes containing 0.2% BSA (final DMSO concentration: 1%-like in the wells containing compounds) in the wells of the assay plate. The final cAMP concentrations in the assay plate were: 0, 0.17, 0.69, 2.78, 11.1, 44.5, 178, and 712 nM (two wells/cAMP concentration).
# Each assay microtiter plate contained also wells with vehicle controls instead of compound as controls for L-Glutamic acid induced signal (negative control; 100% CTL; 10 uM L-Glutamic acid+1 uM forskolin+0.5 mM IBMX+1% DMSO) and wells with vehicle controls without L-Glutamic acid as controls for non-specific changes in signal (positive control; 0% CTL; 0 uM L-Glutamic acid+1 uM forskolin+0.5 mM IBMX+1% DMSO).
# The analysis of the data is performed by the calculation the ratio between the emission at 665 nm and the emission at 615 nm (Em665/Em615 ratio). Thereafter the signals of the compounds are normalized using the positive and negative controls by the following formula:
# PoC=100×((Signal Sample−Positive Control)/(Negative Control−Positive Control))
# T1 sequence (Q14833 33-912): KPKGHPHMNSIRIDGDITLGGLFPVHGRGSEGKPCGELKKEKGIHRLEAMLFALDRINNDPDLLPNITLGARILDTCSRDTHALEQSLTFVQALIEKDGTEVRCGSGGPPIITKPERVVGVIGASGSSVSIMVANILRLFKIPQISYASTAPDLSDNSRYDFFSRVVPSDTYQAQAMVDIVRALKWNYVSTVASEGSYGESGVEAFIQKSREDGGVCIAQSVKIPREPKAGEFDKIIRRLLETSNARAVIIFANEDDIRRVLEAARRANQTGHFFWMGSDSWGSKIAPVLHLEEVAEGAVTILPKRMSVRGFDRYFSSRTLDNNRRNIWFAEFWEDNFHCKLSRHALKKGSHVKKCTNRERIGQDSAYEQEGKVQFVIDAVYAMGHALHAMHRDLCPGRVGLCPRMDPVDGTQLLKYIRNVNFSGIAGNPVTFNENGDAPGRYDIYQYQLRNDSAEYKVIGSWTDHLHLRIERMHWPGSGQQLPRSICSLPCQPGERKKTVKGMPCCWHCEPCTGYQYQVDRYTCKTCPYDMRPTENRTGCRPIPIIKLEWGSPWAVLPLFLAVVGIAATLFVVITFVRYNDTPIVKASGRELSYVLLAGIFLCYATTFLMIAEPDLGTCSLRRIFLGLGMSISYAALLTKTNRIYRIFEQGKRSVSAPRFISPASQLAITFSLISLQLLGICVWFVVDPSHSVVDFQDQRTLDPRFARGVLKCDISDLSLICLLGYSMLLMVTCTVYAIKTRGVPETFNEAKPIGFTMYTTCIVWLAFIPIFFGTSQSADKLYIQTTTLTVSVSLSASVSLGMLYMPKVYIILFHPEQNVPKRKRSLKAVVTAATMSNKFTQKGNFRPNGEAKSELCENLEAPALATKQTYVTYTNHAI
row,Structure (SMILES),activity as mGluR4 modulators in Assay A (in words)
1,"Cn1nccc1C(=O)N[C@H](c1nc2ccc(Br)nc2[nH]1)[C@H]1CC[C@H](C)CC1 [Intermediate 213 in WO2019/138017 (regioisomere 2), reference compound]",no therapeutically relevant activity

# Same assay, conditions: Table 1; HEK293 cell overexpressing human mGluR4; 10 uM L-Glutamic acid, 1 uM forskolin
row,Structure (SMILES),IC50
1,"Cn1nccc1C(=O)N[C@H](c1nc2ccc(Br)nc2[nH]1)[C@H]1CC[C@H](C)CC1 [Intermediate 213 in WO2019/138017 (regioisomere 2), reference compound]",13200 nM

# Same assay, conditions: Table 2; HEK293 cell overexpressing human mGluR4; 10 uM L-Glutamic acid, 1 uM forskolin
row,Structure (SMILES),IC50
1,"COC(C)(C)[C@H](NC(=O)c1cnc(C)cn1)c1nc2cccnc2n1C(C)C [Example 37, N-[(1R)-2-methoxy-2-methyl-1-[3-(propan-2-yl)-3H-imidazo[4,5-b]pyridin-2-yl]propyl]-5-methylpyrazine-2-carboxamide]",19 nM
2,"Cc1cnc(C(=O)N[C@@H](C[C@@H]2CCCO2)c2nc3c(C)c(C#N)cnc3n2C(C)C)cn1 [Example 38, N-[(1S)-1-[6-cyano-7-methyl-3-(propan-2-yl)-3H-imidazo[4,5-b]pyridin-2-yl]-2-[(2S)-oxolan-2-yl]ethyl]-5-methylpyrazine-2-carboxamide]",19 nM
3,"Cc1cnc(C(=O)N[C@H](c2nc3c(C)nc(C(F)(F)F)cc3n2CC(F)F)C2CC2)cn1 [Example 39, N-[(S)-cyclopropyl[1-(2,2-difluoroethyl)-4-methyl-6-(trifluoromethyl)-1H-imidazo[4,5-c]pyridin-2-yl]methyl]-5-methylpyrazine-2-carboxamide]",21 nM
4,"Cc1cnc(C(=O)N[C@H](c2nc3c(C)c(C#N)cnc3n2C(C)C)[C@H]2CCCO2)cn1 [Example 40, N-[(R)-[6-cyano-7-methyl-3-(propan-2-yl)-3H-imidazo[4,5-b]pyridin-2-yl][(2R)-oxolan-2-yl]methyl]-5-methylpyrazine-2-carboxamide]",21 nM
5,"Cc1cnc(C(=O)N[C@H](c2nc3cc(Cl)cnc3n2C(C)C)[C@@H]2CCCO2)cn1 [Example 41, N-[(R)-[6-chloro-3-(propan-2-yl)-3H-imidazo[4,5-b]pyridin-2-yl][(2S)-oxolan-2-yl]methyl]-5-methylpyrazine-2-carboxamide]",21 nM
6,"CO[C@H](C)[C@H](NC(=O)c1cnc(C)cn1)c1nc2c(C)c(C#N)cnc2n1C(C)C [Example 42, N-[(1R,2R)-1-[6-cyano-7-methyl-3-(propan-2-yl)-3H-imidazo[4,5-b]pyridin-2-yl]-2-methoxypropyl]-5-methylpyrazine-2-carboxamide]",21 nM
7,"Cc1cnc(C(=O)N[C@H](c2nc3cnc(C(F)(F)F)cc3n2C(C)C)C2CC2)cn1 [Example 43, N-[(S)-cyclopropyl[1-(propan-2-yl)-6-(trifluoromethyl)-1H-imidazo[4,5-c]pyridin-2-yl]methyl]-5-methylpyrazine-2-carboxamide]",24 nM
8,"Cc1cnc(C(=O)N[C@H](c2nc3cc(F)cnc3n2C(C)C)C2CC2)cn1 [Example 44, N-[(S)-cyclopropyl[6-fluoro-3-(propan-2-yl)-3H-imidazo[4,5-b]pyridin-2-yl]methyl]-5-methylpyrazine-2-carboxamide]",26 nM
9,"CCn1c([C@@H](NC(=O)c2cnc(C)cn2)C2CC2)nc2c(C)nc(C(F)(F)F)cc21 [Example 45, N-[(S)-cyclopropyl[1-ethyl-4-methyl-6-(trifluoromethyl)-1H-imidazo[4,5-c]pyridin-2-yl]methyl]-5-methylpyrazine-2-carboxamide]",33 nM
10,"O=C(N[C@H](c1nc2cnc(C(F)(F)F)cc2n1CC(F)F)C1CC1)c1cnc(C(F)F)cn1 [Example 46, N-[(S)-cyclopropyl[1-(2,2-difluoroethyl)-6-(trifluoromethyl)-1H-imidazo[4,5-c]pyridin-2-yl]methyl]-5-(difluoromethyl)pyrazine-2-carboxamide]",41 nM
11,"CCn1c([C@@H](NC(=O)c2cnc(C)cn2)C2CC2)nc2cc(C(F)(F)F)ncc21 [Example 47, N-[(S)-cyclopropyl[3-ethyl-6-(trifluoromethyl)-3H-imidazo[4,5-c]pyridin-2-yl]methyl]-5-methylpyrazine-2-carboxamide]",41 nM
12,"CCn1c([C@@H](NC(=O)c2cnc(C(F)F)cn2)C2CC2)nc2cc(C(F)(F)F)ncc21 [Example 48, N-[(S)-cyclopropyl[3-ethyl-6-(trifluoromethyl)-3H-imidazo[4,5-c]pyridin-2-yl]methyl]-5-(difluoromethyl)pyrazine-2-carboxamide]",48 nM
13,"CCn1c([C@@H](NC(=O)c2cnc(C(F)F)cn2)C2CC2)nc2cnc(C(F)(F)F)cc21 [Example 49, N-[(S)-cyclopropyl[1-ethyl-6-(trifluoromethyl)-1H-imidazo[4,5-c]pyridin-2-yl]methyl]-5-(difluoromethyl)pyrazine-2-carboxamide]",53 nM
14,"Cc1cnc(C(=O)N[C@H](c2nc3cnc(C(F)(F)F)cc3n2C(C)C)[C@@H]2COCCO2)cn1 [Example 50, N-[(R)-[(2R)-1,4-dioxan-2-yl][1-(propan-2-yl)-6-(trifluoromethyl)-1H-imidazo[4,5-c]pyridin-2-yl]methyl]-5-methylpyrazine-2-carboxamide]",80 nM

# From US20260199325A1, “NOVEL SUBSTITUTED PYRAZINE-CARBOXAMIDE-IMIDAZOPYRIDINE DERIVATIVES” (Boehringer Ingelheim International GmbH, priority 2022, published 2026)
